Source: patent US4729991A, “Cephem compounds” (Fujisawa Pharmaceutical Co., Ltd., priority 1978, dated 1988)
Converted amounts (≈) assume the structure as drawn.

Legend:
Assay in all cases: In vitro antibacterial activity, two-fold agar-plate dilution method
Format in all cases: cell-based
[1] = test system: Escherichia coli NIHJ JC-2; conditions: NIHJJC2, HI-agar, 37° C., 20 hours
Description: (§1) (1) Test method In vitro antibacterial activity was determined by the two-fold agar-plate dilution method as described below. One loopful of an overnight culture of each test strain in Trypticase-soy broth was streaked on heart infusion agar (HI-agar) containing graded concentrations of the test compound and incubated at 37° C. for 20 hours. The minimal inhibitory concentration (MIC) was expressed in μg/ml.

[2] = test system: Klebsiella pneumoniae 20; conditions: HI-agar, 37° C., 20 hours
Description: as §1

[3] = test system: Proteus mirabilis 18; conditions: HI-agar, 37° C., 20 hours
Description: as §1

[4] = test system: Proteus vulgaris IAM-1025; conditions: IAM1025, HI-agar, 37° C., 20 hours
Description: as §1

[5] = test system: Pseudomonus aeruginosa NCTC-10490; conditions: HI-agar, 37° C., 20 hours
Description: as §1

[6] = test system: Staphylococcus aureus 209P JC-1; conditions: HI-agar, 37° C., 20 hours
Description: as §1

| SMILES | MIC [1] [µg/mL] | MIC [2] [µg/mL] | MIC [3] [µg/mL] | MIC [4] [µg/mL] | MIC [5] [µg/mL] | MIC [6] [µg/mL] |
| --- | --- | --- | --- | --- | --- | --- |
| CO/N=C(\C(=O)NC1C(=O)N2C(C(=O)O)=C(COC(=O)c3ccccc3)CSC12)c1nc(N)sc1Br (stereo not drawn) [compound 4, 7-[2-(2-amino-5-bromothiazol-4-yl)-2-methoxyiminoacetamido]-3-benzoyloxymethyl-3-cephem-4-carboxylic acid (syn isomer)] | 6.25 (≈ 10.5 µM) | 1.56 (≈ 2.62 µM) | 3.13 (≈ 5.25 µM) | 12.5 (≈ 21 µM) | 6.25 (≈ 10.5 µM) | 1.56 (≈ 2.62 µM) |
| CO/N=C(\C(=O)NC1C(=O)N2C(C(=O)O)=C(CSc3nncs3)CSC12)c1nc(N)sc1Cl (stereo not drawn) [compound 5, 7-[2-(2-amino-5-chlorothiazol-4-yl)-2-methoxyiminoacetamido]-3-(1,3,4-thiadiazol-2-ylthiomethyl)-3-cephem-4-carboxylic acid (syn isomer)] | 1.56 (≈ 2.85 µM) | 0.39 (≈ 0.712 µM) | 0.78 (≈ 1.42 µM) | 1.56 (≈ 2.85 µM) | 1.56 (≈ 2.85 µM) | 3.13 (≈ 5.71 µM) |

Now from value to compound:

| MIC [1] [µg/mL] | MIC [2] [µg/mL] | MIC [3] [µg/mL] | MIC [4] [µg/mL] | MIC [5] [µg/mL] | MIC [6] [µg/mL] | SMILES |
| --- | --- | --- | --- | --- | --- | --- |
| 0.78 (≈ 1.32 µM) | 0.78 (≈ 1.32 µM) | 0.78 (≈ 1.32 µM) | 6.25 (≈ 10.5 µM) | 3.13 (≈ 5.28 µM) | 1.56 (≈ 2.63 µM) | CO/N=C(\C(=O)NC1C(=O)N2C(C(=O)O)=C(CSc3nncs3)CSC12)c1nc(N)sc1Br (stereo not drawn) [compound 1, 7-[2-(2-amino-5-bromothiazol-4-yl)-2-methoxyiminoacetamido]-3-(1,3,4-thiadiazol-2-ylthiomethyl)-3-cephem-4-carboxylic acid (syn isomer)] |
| 1.56 (≈ 2.57 µM) | 3.13 (≈ 5.16 µM) | 6.25 (≈ 10.3 µM) | 12.5 (≈ 20.6 µM) | 6.25 (≈ 10.3 µM) | 3.13 (≈ 5.16 µM) | CO/N=C(\C(=O)NC1C(=O)N2C(C(=O)O)=C(CSc3nnc(C)s3)CSC12)c1nc(N)sc1Br (stereo not drawn) [compound 2, 7-[2-(2-amino-5-bromothiazol-4-yl)-2-methoxyiminoacetamide]-3-(5-methyl-1,3,4-thiadiazol-2-ylthiomethyl)-3-cephem-4-carboxylic acid (syn isomer)] |
| 1.56 (≈ 2.64 µM) | 0.39 (≈ 0.66 µM) | 3.13 (≈ 5.3 µM) | 12.5 (≈ 21.2 µM) | 3.13 (≈ 5.3 µM) | 3.13 (≈ 5.3 µM) | CO/N=C(\C(=O)NC1C(=O)N2C(C(=O)O)=C(CSc3nnnn3C)CSC12)c1nc(N)sc1Br (stereo not drawn) [compound 3, 7-[2-(2-amino-5-bromothiazol-4-yl)-2-methoxyiminoacetamido]-3-(1-methyl-1H-tetrazol-5-ylthiomethyl)-3-cephem-4-carboxylic acid (syn isomer)] |
